Reference: article PMC4269767, “Ligand Binding Modulates the Structural Dynamics and Compactness of the Major Birch Pollen Allergen” (Biophysical Journal, 2014)
Where a name gives a salt, the structure may show the parent alone.

What was measured:
Bet v 1.0101 [1] = biological target: T1, Bet v 1.0101 (Betula pendula, UniProt P15494); experiment: crystal structure (soaked); 1H-15N HSQC NMR titration; relaxation dispersion; format: binding
T1 construct: gene BETVIA
T1 sequence (P15494 2-160): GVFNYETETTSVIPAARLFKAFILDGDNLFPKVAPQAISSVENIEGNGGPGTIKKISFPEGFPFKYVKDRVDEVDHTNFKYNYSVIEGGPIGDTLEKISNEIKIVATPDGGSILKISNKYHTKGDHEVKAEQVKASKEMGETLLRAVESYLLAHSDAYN

Bet v 1.0101 [2] = biological target: T1, Bet v 1.0101; experiment: 1H-15N HSQC NMR titration; PFG diffusion NMR; relaxation dispersion; format: binding

Kd (Bet v 1.0101 [1]) [µM] | Kd (Bet v 1.0101 [2]) [µM] | Structure (SMILES)
7 |  | CCCCCCCCCCCCOS(=O)(=O)O [SDS, sodium dodecyl sulfate]
 | 1 | CCCCC(CC)CCC(CC(C)C)OS(=O)(=O)O (centres unmarked) [STS, sodium tetradecyl sulfate]
